Measured values taken from patent publication US12187702B2, “Sulfonamideurea compounds” (Inflazome Limited, priority 2018, dated 2025).
Structures can show the parent of a compound that is named as a salt.

Experiments:
NLRP3 [1] = biological target: T1, NLRP3 (Homo sapiens, UniProt Q96P20); experiment: Human whole blood IL-1β release assay (LPS + nigericin, AlphaLisa); assay type: cell-based; parameters: Plate out 80 μl of whole blood containing 1 μg/ml of LPS; from tissue; host or cells: human whole blood from healthy donors; details: human whole blood, 1 μg/ml LPS, 10 μM nigericin; IL-1β release; read-out: HWB IC50
Experimental: For systemic delivery, the ability to inhibit NLRP3 when the compounds are present within the bloodstream is of great importance. For this reason, the NLRP3 inhibitory activity of a number of compounds in human whole blood was investigated in accordance with the following protocol.
Human whole blood in Li-heparin tubes was obtained from healthy donors from a volunteer donor panel. • 1. Plate out 80 μl of whole blood containing 1 μg/ml of LPS in 96-well, clear bottom cell culture plate (Corning #3585) • 2. Add 10 μl compound (8 points half-log dilution with 10 μM top dose) or vehicle (DMSO 0.1% FAC) to the appropriate wells • 3. Incubate for 3 hrs at 37° C., 5% CO2 • 4. Add 10 μl nigericin (Sigma #N7143) (10 μM FAC) to all wells • 5. Incubate for 1 hr at 37° C., 5% CO2 • 6. At the end of the incubation period, spin plates at 300×g for 5 mins to pellet cells and remove 20 μl of supernatant and add to 96-well v-bottom plates for IL-1β analysis (note: these plates containing the supernatants can be stored at −80° C. to be analysed at a later date) • 7. IL-1β was measured according to the manufacturer protocol (Perkin Elmer-AlphaLisa IL-1 Kit AL220F-5000) • 8. IC50 data is fitted to a non-linear regression equation (log inhibitor vs response-variable slope 4-parameters)

NLRP3 [2] = biological target: T1, NLRP3; experiment: THP-1 cells pyroptosis assay (LPS + nigericin, resazurin read-out); assay type: cell-based; parameters: Seed THP-1 cells (25,000 cells/well) containing 1.0 μg/ml LPS; host or cells: THP-1 cells; details: THP-1 cells, 1 μg/ml LPS, 5 μM nigericin; NLRP3 inhibitory activity; read-out: THP IC50
Experimental: THP-1 cells (ATCC #TIB-202) were grown in RPMI containing L-glutamine (Gibco #11835) supplemented with 1 mM sodium pyruvate (Sigma #S8636) and penicillin (100 units/ml)/streptomycin (0.1 mg/ml) (Sigma #P4333) in 10% Fetal Bovine Serum (FBS) (Sigma #F0804). The cells were routinely passaged and grown to confluency (˜10^6 cells/ml). On the day of the experiment, THP-1 cells were harvested and resuspended into RPMI medium (without FBS). The cells were then counted and viability (>90%) checked by Trypan blue (Sigma #T8154). Appropriate dilutions were made to give a concentration of 625,000 cells/ml. To this diluted cell solution was added LPS (Sigma #L4524) to give a 1 μg/ml Final Assay Concentration (FAC). 40 μl of the final preparation was aliquoted into each well of a 96-well plate. The plate thus prepared was used for compound screening.
The following method step-by-step assay was followed for compound screening. • 1. Seed THP-1 cells (25,000 cells/well) containing 1.0 μg/ml LPS in 40 μl of RPMI medium (without FBS) in 96-well, black walled, clear bottom cell culture plates coated with poly-D-lysine (VWR #734-0317) • 2. Add 5 μl compound (8 points half-log dilution, with 10 μM top dose) or vehicle (DMSO 0.1% FAC) to the appropriate wells • 3. Incubate for 3 hrs at 37° C., 5% CO2 • 4. Add 5 μl nigericin (Sigma #N7143) (FAC 5 μM) to all wells • 5. Incubate for 1 hr at 37° C., 5% CO2 • 6. At the end of the incubation period, spin plates at 300×g for 3 mins and remove supernatant • 7. Then add 50 μl of resazurin (Sigma #R7017) (FAC 100 μM resazurin in RPMI medium without FBS) and incubate plates for a further 1-2 hrs at 37° C. and 5% CO2 • 8. Plates were read in an Envision reader at Ex 560 nm and Em 590 nm • 9. IC50 data is fitted to a non-linear regression equation (log inhibitor vs response-variable slope 4-parameters)

T1 sequence (Q96P20 whole entry): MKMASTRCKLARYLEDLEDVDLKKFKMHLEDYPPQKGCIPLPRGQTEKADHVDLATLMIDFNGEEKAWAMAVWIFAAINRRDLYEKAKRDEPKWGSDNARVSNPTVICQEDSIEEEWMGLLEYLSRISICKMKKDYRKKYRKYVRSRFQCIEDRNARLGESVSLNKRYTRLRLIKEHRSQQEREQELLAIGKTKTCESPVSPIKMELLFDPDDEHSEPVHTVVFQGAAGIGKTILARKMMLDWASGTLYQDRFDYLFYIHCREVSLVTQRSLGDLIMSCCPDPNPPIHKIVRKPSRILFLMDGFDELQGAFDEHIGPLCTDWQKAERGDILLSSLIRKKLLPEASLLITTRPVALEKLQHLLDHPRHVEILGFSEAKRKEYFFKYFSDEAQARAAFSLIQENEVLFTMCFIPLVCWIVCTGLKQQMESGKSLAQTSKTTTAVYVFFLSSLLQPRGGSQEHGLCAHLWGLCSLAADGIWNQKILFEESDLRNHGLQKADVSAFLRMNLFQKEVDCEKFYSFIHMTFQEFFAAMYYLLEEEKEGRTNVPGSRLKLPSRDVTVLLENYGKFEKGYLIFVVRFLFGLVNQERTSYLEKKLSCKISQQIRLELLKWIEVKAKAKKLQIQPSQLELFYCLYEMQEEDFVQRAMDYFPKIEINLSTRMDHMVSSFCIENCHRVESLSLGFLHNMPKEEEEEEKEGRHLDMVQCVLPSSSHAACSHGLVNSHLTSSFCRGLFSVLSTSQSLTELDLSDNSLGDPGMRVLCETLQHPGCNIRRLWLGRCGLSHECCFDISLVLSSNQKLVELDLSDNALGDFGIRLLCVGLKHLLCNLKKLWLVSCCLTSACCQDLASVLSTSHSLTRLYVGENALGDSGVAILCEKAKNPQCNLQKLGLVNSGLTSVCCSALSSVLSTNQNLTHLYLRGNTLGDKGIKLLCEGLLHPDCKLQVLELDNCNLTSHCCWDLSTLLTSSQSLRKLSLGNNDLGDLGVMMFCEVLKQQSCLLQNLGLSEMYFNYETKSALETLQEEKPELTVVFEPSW

Row | SMILES | IC50 (NLRP3 [1]) | IC50 (NLRP3 [2])
1 | CN1CCC[C@@H]1CN(C)S(=O)(=O)NC(=O)Nc1c2c(cc3c1CCC3)C=CC2 [Example 112, (R)—(N-Methyl-N-((1-methylpyrrolidin-2-yl)methyl)sulfamoyl)((1,2,3,5-tetrahydro-s-indacen-4-yl)carbamoyl)amide, potassium salt] | < 5000 nM | < 1000 nM
2 | CN(C)CCN(Cc1ccccc1)S(=O)(=O)NC(=O)Nc1c2c(cc3c1CCC3)CCC2 [Example 10, 3-(N-Benzyl-N-(2-(dimethylamino)ethyl)sulfamoyl)-1-(1,2,3,5,6,7-hexahydro-s-indacen-4-yl)urea, potassium salt] | < 5000 nM | < 5000 nM
3 | CCN1C2CCC1CN(S(=O)(=O)NC(=O)Nc1c3c(cc4c1CCC4)CCC3)C2 [Example 61, 8-Ethyl-N-((1,2,3,5,6,7-hexahydro-s-indacen-4-yl)carbamoyl)-3,8-diazabicyclo[3.2.1]octane-3-sulfonamide, potassium salt] | < 500 nM | < 500 nM
4 | COc1cc(-c2c(C)cc3c(c2NC(=O)NS(=O)(=O)N(C)C)CCC3)ccn1 [Example 114, N-((5-(2-Methoxypyridin-4-yl)-6-methyl-2,3-dihydro-1H-inden-4-yl)carbamoyl)(N,N-dimethylsulfamoyl)amide] | < 1000 nM | < 500 nM
5 | CC(C)N1CCC1CNS(=O)(=O)NC(=O)Nc1c2c(cc3c1CCC3)CCC2 (stereo not drawn) [Example 50, 3-(N-((1-Isopropylazetidin-2-yl)methyl)sulfamoyl)-1-(1,2,3,5,6,7-hexahydro-s-indacen-4-yl)urea, potassium salt] | < 500 nM | < 500 nM
6 | CN(C)C1CCN(S(=O)(=O)NC(=O)Nc2c3c(cc4c2CCC4)CCC3)C1 (stereo not drawn) [Example 9, 3-(Dimethylamino)-N-((1,2,3,5,6,7-hexahydro-s-indacen-4-yl)carbamoyl)pyrrolidine-1-sulfonamide, potassium salt] | < 500 nM | < 500 nM
7 | CN(C)CCN(CCCc1ccccc1)S(=O)(=O)NC(=O)Nc1c2c(cc3c1CCC3)CCC2 [Example 58, 3-(N-(2-(Dimethylamino)ethyl)-N-(3-phenylpropyl)sulfamoyl)-1-(1,2,3,5,6,7-hexahydro-s-indacen-4-yl)urea, potassium salt] | < 5000 nM | < 500 nM
8 | CN(C)C1CCCN(S(=O)(=O)NC(=O)Nc2c3c(cc4c2CCC4)CCC3)C1 (stereo not drawn) [Example 15, potassium salt] | < 500 nM | < 500 nM
9 | CCN(CC)C1CCN(S(=O)(=O)NC(=O)Nc2c3c(cc4c2CCC4)CCC3)C1 (stereo not drawn) [Example 49, 3-(3-((Diethylamino)pyrrolidine)-1-sulfamoyl)-1-(1,2,3,5,6,7-hexahydro-s-indacen-4-yl)urea, potassium salt] | < 500 nM | < 500 nM
10 | CC(C)N(CCN(C)C)S(=O)(=O)NC(=O)Nc1c2c(cc3c1CCC3)CCC2 [Example 83, 3-(N-(2-(Dimethylamino)ethyl)-N-isopropylsulfamoyl)-1-(1,2,3,5,6,7-hexahydro-s-indacen-4-yl)urea, potassium salt] | < 5000 nM | < 1000 nM
11 | CN1C[C@H]2C[C@@H]1CN2S(=O)(=O)NC(=O)Nc1c2c(cc3c1CCC3)CCC2 [Example 43, (1R,4R)—N-((1,2,3,5,6,7-Hexahydro-s-indacen-4-yl)carbamoyl)-5-methyl-2,5-diazabicyclo[2.2.1]heptane-2-sulfonamide, potassium salt] | < 500 nM | < 500 nM
12 | CN1CCCC2CN(S(=O)(=O)NC(=O)Nc3c4c(cc5c3CCC5)CCC4)CC21 (stereo not drawn) [Example 97, N-((1,2,3,5,6,7-Hexahydro-s-indacen-4-yl)carbamoyl)-1-methyloctahydro-6H-pyrrolo[3,4-b]pyridine-6-sulfonamide] | < 500 nM | < 500 nM
13 | CC(C)n1cc(NS(=O)(=O)NC(=O)Nc2c3c(cc4c2CCC4)CCC3)cn1 [Example 65, 3-(N-(1-Isopropyl-1H-pyrazol-4-yl)sulfamoyl)-1-(1,2,3,5,6,7-hexahydro-s-indacen-4-yl)urea, potassium salt] | < 5000 nM | < 500 nM
14 | CC(C)N1CC2CCC(C1)N2S(=O)(=O)NC(=O)Nc1c2c(cc3c1CCC3)CCC2 [Example 38, N-((1,2,3,5,6,7-Hexahydro-s-indacen-4-yl)carbamoyl)-3-isopropyl-3,8-diazabicyclo[3.2.1]octane-8-sulfonamide, potassium salt] | < 1000 nM | < 500 nM
15 | O=C(Nc1c2c(cc3c1CCC3)CCC2)NS(=O)(=O)N1CC(N2CCC2)C1 [Example 46, N-((1,2,3,5,6,7-Hexahydro-s-indacen-4-yl)carbamoyl)-[1,3′-biazetidine]-1′-sulfonamide, potassium salt] | < 5000 nM | < 1000 nM
16 | CC(CNS(=O)(=O)NC(=O)Nc1c2c(cc3c1CCC3)CCC2)N(C)C (stereo not drawn) [Example 30, 3-(N-(2-(Dimethylamino)propyl))sulfamoyl)-1-(1,2,3,5,6,7-hexahydro-s-indacen-4-yl)urea, potassium salt] | < 500 nM | < 1000 nM
17 | CCN1CC2CCC(C1)N2S(=O)(=O)NC(=O)Nc1c2c(cc3c1CCC3)CCC2 [Example 62, 3-Ethyl-N-((1,2,3,5,6,7-hexahydro-s-indacen-4-yl)carbamoyl)-3,8-diazabicyclo[3.2.1]octane-8-sulfonamide, potassium salt] | < 1000 nM | < 500 nM
18 | CN1CCCC1CN(C)S(=O)(=O)NC(=O)Nc1c2c(cc3c1CCC3)CCC2 (stereo not drawn) [Example 80, 3-(N-Methyl-N-((1-methylpyrrolidin-2-yl)methyl)sulfamoyl)-1-(1,2,3,5,6,7-hexahydro-s-indacen-4-yl)urea, potassium salt] | < 500 nM | < 500 nM
19 | CN(C)CC1CCN(S(=O)(=O)NC(=O)Nc2c3c(cc4c2CCC4)CCC3)C1 (stereo not drawn) [Example 68, potassium salt] | < 1000 nM | < 500 nM
20 | CN1C[C@H]2CN(S(=O)(=O)NC(=O)Nc3c4c(cc5c3CCC5)CCC4)C[C@H]21 [Example 92, (1S,5S)—N-((1,2,3,5,6,7-Hexahydro-s-indacen-4-yl)carbamoyl)-6-methyl-3,6-diazabicyclo[3.2.0]heptane-3-sulfonamide, potassium salt] | < 500 nM | < 500 nM
21 | CN1CCCC(NS(=O)(=O)NC(=O)Nc2c3c(cc4c2CCC4)CCC3)C1 (stereo not drawn) [Example 52, 3-(N-(1-Methylpiperidin-3-yl)sulfamoyl)-1-(1,2,3,5,6,7-hexahydro-s-indacen-4-yl)urea, potassium salt] | < 500 nM | < 500 nM
22 | CCN(CC)CCNS(=O)(=O)NC(=O)Nc1c2c(cc3c1CCC3)CCC2 [Example 40, 3-(N-(2-(Diethylamino)ethyl)sulfamoyl))-1-(1,2,3,5,6,7-hexahydro-s-indacen-4-yl)urea, potassium salt] | < 500 nM | < 1000 nM
23 | CC(C)(C)NCCNS(=O)(=O)NC(=O)Nc1c2c(cc3c1CCC3)CCC2 [Example 71, 3-(N-(2-(tert-Butylamino)ethyl)sulfamoyl)-1-(1,2,3,5,6,7-hexahydro-s-indacen-4-yl)urea, potassium salt] | < 1000 nM | < 500 nM
24 | CC(C)c1cc(F)cc(-c2ccncc2)c1NC(=O)NS(=O)(=O)N(C)C1CCN(C)C1 (stereo not drawn) [Example 108] | < 500 nM | < 500 nM
